Columns and labels:
[1] = tested on: velvetleaf; experiment: Test A preemergence; assay type: in vivo, Abutilon theophrasti; conditions: Abutilon theophrasti, pre-emergence, 240 h, 0 to 100 scale (0 no effect, 100 complete control), read-out: Plant response rating, Velvetleaf; for pest or weed control at 125 g/ha: 125 g ai/ha; for pest or weed control at 500 g/ha: 500 g ai/ha, approx. 10 d
Procedure, shortened: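 Pre- and postemergence spray tests in a loam soil–sand mixture: seeded soil received a directed spray, while established seedlings 2–10 cm high at the one- to two-leaf stage were treated over the top. Compounds were carried in non-phytotoxic solvent with surfactant.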

[2] = tested on: lambsquarters; experiment: Test C preemergence; assay type: in vivo, Chenopodium album; conditions: for Plant response rating (scale of 0 to 100 where 0 is no effect and 100 is complete control): Lambsquarters, preemergence; for Lambsquarters plant response rating (0 to 100): Preemergence, visual rating after 13 to 15 d
Source text: (§1) Seeds of plant species selected from blackgrass (Alopecurus myosuroides), ryegrass, Italian (Italian ryegrass, Lolium multiflorum), wheat (winter wheat, Triticum aestivum), galium (catchweed bedstraw, Galium aparine), corn (Zea mays), crabgrass, large (large crabgrass, Digitaria sanguinalis), foxtail, giant, (giant foxtail, Setaria faberii), johnsongrass (Sorghum halepense), lambsquarters (Chenopodium album), morningglory (Ipomoea coccinea), nutsedge, yellow (yellow nutsedge, Cyperus esculentus), pigweed (Amaranthus retroflexus), ragweed (common ragweed, Ambrosia elatior), soybean (Glycine max), barnyardgrass (Echinochloa crus-galli), oilseed rape (Brassica napus), waterhemp (common waterhemp, Amaranthus rudis), and velvetleaf (Abutilon theophrasti) were planted into a blend of loam soil and sand and treated preemergence with test chemicals formulated in a non-phytotoxic solvent mixture which included a surfactant. At the same time, plants selected from these crop and weed species and also chickweed (common chickweed, Stellaria media), oat, wild (wild oat, Avena fatua), and kochia (Kochia scoparia), were planted in pots containing Sunshine Redi-Earth® planting medium comprising spaghnum peat moss, vermiculite, starter nutrients and dolomitic limestone and treated with postemergence applications of test chemicals formulated in the same manner. Plants ranged in height from 2 to 18 cm (1- to 4-leaf stage) for postemergence treatments. […] A dash (-) response means no test result.

[3] = tested on: velvetleaf; experiment: Test C preemergence; assay type: in vivo, Abutilon theophrasti; conditions: for Velvetleaf plant response rating (0 to 100): Preemergence, visual rating after 13 to 15 d; for Plant response rating (scale of 0 to 100 where 0 is no effect and 100 is complete control): Velvetleaf, preemergence, 250 g ai/ha
Source text: as §1

[4] = tested on: morningglory; experiment: Test C preemergence; assay type: in vivo, Ipomoea coccinea; conditions: for Plant response rating (scale of 0 to 100 where 0 is no effect and 100 is complete control): Morningglory, preemergence; for Morningglory plant response rating (0 to 100): Preemergence, visual rating after 13 to 15 d
Source text: as §1

Cn1nc(-c2ccc(F)cc2)nc1Oc1cccc(C(F)(F)F)c1 [Compound 5, 3-(4-fluorophenyl)-1-methyl-5-[3-(trifluoromethyl)phenoxy]-1H-1,2,4-triazole]
pest or weed control at 125 g/ha [1]: 0%
pest or weed control at 500 g/ha [1]: 0%

CCCc1nc(-c2ccc(F)cc2)nn1Cc1ccnc(C(F)(F)F)c1 [Compound 6, 4-[[3-(4-fluorophenyl)-5-propyl-1H-1,2,4-triazol-1-yl]methyl]-2-(trifluoromethyl)pyridine]
pest or weed control at 125 g/ha [1]: 40%
pest or weed control at 500 g/ha [1]: 100%
Plant response rating (scale of 0 to 100 where 0 is no effect and 100 is complete control) ([2]; 125 g ai/ha): 98
Plant response rating (scale of 0 to 100 where 0 is no effect and 100 is complete control) ([2]; 250 g ai/ha): 98
Lambsquarters plant response rating (0 to 100) ([2]; 31 g ai/ha): 98
Lambsquarters plant response rating (0 to 100) ([2]; 62 g ai/ha): 98
Velvetleaf plant response rating (0 to 100) ([3]; 31 g ai/ha): 20
Velvetleaf plant response rating (0 to 100) ([3]; 62 g ai/ha): 75
Plant response rating (scale of 0 to 100 where 0 is no effect and 100 is complete control) [3]: 100
Plant response rating (scale of 0 to 100 where 0 is no effect and 100 is complete control) ([4]; 125 g ai/ha): 75
Plant response rating (scale of 0 to 100 where 0 is no effect and 100 is complete control) ([4]; 250 g ai/ha): 100
Morningglory plant response rating (0 to 100) ([4]; 31 g ai/ha): 45
Morningglory plant response rating (0 to 100) ([4]; 62 g ai/ha): 60

Cn1nc(-c2ccc(F)cc2)nc1C(O)c1ccnc(C(F)(F)F)c1 (stereo not drawn) [Compound 14, α-[3-(4-fluorophenyl)-1-methyl-1H-1,2,4-triazol-5-yl]-2-(trifluoromethyl)-4-pyridinemethanol]
pest or weed control at 125 g/ha [1]: 0%
pest or weed control at 500 g/ha [1]: 0%

CCn1nc(-c2ccc(F)cc2)nc1C(O)c1ccnc(C(F)(F)F)c1 (stereo not drawn) [Compound 15, α-[1-Ethyl-3-(4-fluorophenyl)-1H-1,2,4-triazol-5-yl]-2-(trifluoromethyl)-4-pyridinemethanol]
pest or weed control at 125 g/ha [1]: 0%
pest or weed control at 500 g/ha [1]: 0%

CCCn1nc(-c2ccc(F)cc2)nc1Cc1ccnc(C(F)(F)F)c1 [Compound 17, 4-[[3-(4-fluorophenyl)-1-propyl-1H-1,2,4-triazol-5-yl]methyl]-2-(trifluoromethyl)pyridine]
pest or weed control at 125 g/ha [1]: 90%
pest or weed control at 500 g/ha [1]: 100%

CCn1nc(-c2ccc(F)cc2)nc1C(=O)c1ccnc(C(F)(F)F)c1 [Compound 19, [1-ethyl-3-(4-fluorophenyl)-1H-1,2,4-triazol-5-yl][2-(trifluoromethyl)-4-pyridinyl]methanone]
pest or weed control at 125 g/ha [1]: 0%
pest or weed control at 500 g/ha [1]: 0%

CS(=O)(=O)c1nc(-c2ccc(F)cc2)nn1Cc1ccnc(C(F)(F)F)c1 [Compound 29, 4-[[3-(4-fluorophenyl)-5-(methylsulfonyl)-1H-1,2,4-triazole-1-yl]methyl]-2-(trifluoromethyl)pyridine]
pest or weed control at 125 g/ha [1]: 0%
pest or weed control at 500 g/ha [1]: 0%

COc1nc(-c2ccccc2)nn1Cc1ccnc(C(F)(F)F)c1 [Compound 32]
Plant response rating (scale of 0 to 100 where 0 is no effect and 100 is complete control) ([2]; 125 g ai/ha): 80
Plant response rating (scale of 0 to 100 where 0 is no effect and 100 is complete control) ([2]; 250 g ai/ha): 90
Lambsquarters plant response rating (0 to 100) ([2]; 31 g ai/ha): 60
Lambsquarters plant response rating (0 to 100) ([2]; 62 g ai/ha): 60
Velvetleaf plant response rating (0 to 100) ([3]; 31 g ai/ha): 20
Velvetleaf plant response rating (0 to 100) ([3]; 62 g ai/ha): 10
Plant response rating (scale of 0 to 100 where 0 is no effect and 100 is complete control) [3]: 60
Plant response rating (scale of 0 to 100 where 0 is no effect and 100 is complete control) ([4]; 125 g ai/ha): 5
Plant response rating (scale of 0 to 100 where 0 is no effect and 100 is complete control) ([4]; 250 g ai/ha): 45
Morningglory plant response rating (0 to 100) ([4]; 31 g ai/ha): 0
Morningglory plant response rating (0 to 100) ([4]; 62 g ai/ha): 5
